Molecular target: IRAK4 (Homo sapiens (Human), UniProt Q9NWZ3)
Assay: Determination of IRAK4 kinase activity (IMAP fluorescence polarization, phosphorylation of fluorescent peptide substrate)
Format: biochemical
Details: 0.5 nM GST tagged IRAK4, 100 nM peptide substrate RP7030, 100 μM ATP, 30 minutes at 25° C.
Summary of the method: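 GST-tagged IRAK4 (0.5 nM) phosphorylated 100 nM fluorescent peptide substrate with 100 µM ATP in Tris-HCl pH 7.2, 1 mM MgCl2, 1 mM DTT, 0.01% Tween 20 for 30 min at 25 °C. Phosphorylation read by IMAP nanoparticle binding as fluorescence polarization increase.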

Sequence of IRAK4 (Q9NWZ3 whole entry): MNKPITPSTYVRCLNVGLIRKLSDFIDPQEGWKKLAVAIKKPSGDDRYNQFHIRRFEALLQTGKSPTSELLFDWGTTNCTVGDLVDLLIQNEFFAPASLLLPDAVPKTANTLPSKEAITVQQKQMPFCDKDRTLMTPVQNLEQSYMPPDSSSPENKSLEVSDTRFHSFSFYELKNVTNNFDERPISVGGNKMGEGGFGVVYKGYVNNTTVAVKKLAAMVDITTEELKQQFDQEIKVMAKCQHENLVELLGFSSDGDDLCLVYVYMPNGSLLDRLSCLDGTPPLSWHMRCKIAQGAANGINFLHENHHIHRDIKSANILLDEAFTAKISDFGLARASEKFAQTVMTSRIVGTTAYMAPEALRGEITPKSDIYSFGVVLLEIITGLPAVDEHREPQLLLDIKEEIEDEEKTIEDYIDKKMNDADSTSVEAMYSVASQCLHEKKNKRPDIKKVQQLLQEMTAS

Cc1cc(Nc2ncc(-c3ccc4ccccc4n3)c(N[C@@H]3C[C@H](CO)[C@@H](O)[C@H]3O)n2)cc(C)n1 [Example 59, 6-(((1R,2S,3R,4R)-2,3-dihydroxy-4-(hydroxymethyl)cyclopentyl)amino)-2-((2,6-dimethylpyridin-4-yl)amino)-5-(quinolin-2-yl)pyrimidine] showed an IC50 of 1 nM.

In the case of OC[C@H]1C[C@@H](Nc2nc(NC3CC3)ncc2-c2ccc3ccccc3n2)[C@H](O)[C@@H]1O [Example 60, 2-(cyclopropylamino)-6-(((1R,2S,3R,4R)-2,3-dihydroxy-4-(hydroxymethyl)cyclopentyl)amino)-5-(quinolin-2-yl)pyrimidine], the IC50 is reported as 1470 nM.

With CC(C)Oc1cc(Nc2ncc(-c3ccc4ccccc4n3)c(N[C@@H]3C[C@H](CO)[C@@H](O)[C@H]3O)n2)ccn1 [Example 61, 6-(((1R,2S,3R,4R)-2,3-dihydroxy-4-(hydroxymethyl)cyclopentyl)amino)-2-((2-isopropoxypyridin-4-yl)amino)-5-(quinolin-2-yl)pyrimidine] the IC50 was 27 nM.

CC(C)n1ccc(Nc2ncc(-c3ccc4ccccc4n3)c(N[C@@H]3C[C@H](CO)[C@@H](O)[C@H]3O)n2)cc1=O [Example 62, 6-(((1R,2S,3R,4R)-2,3-dihydroxy-4-(hydroxymethyl)cyclopentyl)amino)-2-((1-isopropyl-2-oxo-1,2-dihydropyridin-4-yl)amino)-5-(quinolin-2-yl)pyrimidine] gave an IC50 of 154 nM.

OC[C@H]1C[C@@H](Nc2nc(Nc3ccnc(OC4CC4)c3)ncc2-c2ccc3ccccc3n2)[C@H](O)[C@@H]1O [Example 63, 2-((2-cyclopropoxypyridin-4-yl)amino)-6-(((1R,2S,3R,4R)-2,3-dihydroxy-4-(hydroxymethyl)cyclopentyl)amino)-5-(quinolin-2-yl)pyrimidine] gave an IC50 of 43 nM.

For Nc1ncc(-c2nccs2)c(N[C@@H]2C[C@H](CO)[C@@H](O)[C@H]2O)n1 [Example 64, 2-amino-6-(((1R,2S,3R,4R)-2,3-dihydroxy-4-(hydroxymethyl)cyclopentyl)amino)-5-(thiazol-2-yl)pyrimidine], the IC50 was 241 nM.

For OC[C@H]1C[C@@H](Nc2nc(Nc3ccncc3)ncc2-c2nccs2)[C@H](O)[C@@H]1O [Example 65, 6-(((1R,2S,3R,4R)-2,3-dihydroxy-4-(hydroxymethyl)cyclopentyl)amino)-2-(pyridin-4-ylamino)-5-(thiazol-2-yl)pyrimidine], the IC50 was 260 nM.

In the case of CN(C)c1ccc(Nc2ncc(-c3nc4cnccc4s3)c(N[C@@H]3C[C@H](CO)[C@@H](O)[C@H]3O)n2)cc1 [Example 66, (1R,2S,3R,5R)-3-((2-((4-(dimethylamino)phenyl)amino)-5-(thiazolo[4,5-c]pyridin-2-yl)pyrimidin-4-yl)amino)-5-(hydroxymethyl)cyclopentane-1,2-diol], the IC50 is reported as 4 nM.

Work on Cc1cc(Nc2ncc(-c3nc4cnccc4s3)c(N[C@@H]3C[C@H](CO)[C@@H](O)[C@H]3O)n2)cc(C)n1 [Example 67, (1R,2S,3R,5R)-3-((2-((2,6-dimethylpyridin-4-yl)amino)-5-(thiazolo[4,5-c]pyridin-2-yl)pyrimidin-4-yl)amino)-5-(hydroxymethyl)cyclopentane-1,2-diol] yielded an IC50 of 0.5 nM.

Compound Cc1cc(Nc2ncc(-c3nc4ccncc4s3)c(N[C@@H]3C[C@H](CO)[C@@H](O)[C@H]3O)n2)cc(C)n1 [Example 68, (1R,2S,3R,5R)-3-((2-((2,6-dimethylpyridin-4-yl)amino)-5-(thiazolo[5,4-c]pyridin-2-yl)pyrimidin-4-yl)amino)-5-(hydroxymethyl)cyclopentane-1,2-diol] has an IC50 of 0.2 nM.

In the case of Cc1cc(Nc2ncc(-c3nc4cnccc4s3)c(N[C@@H]3C[C@H](CO)[C@@H](O)[C@H]3O)n2)ccn1 [Example 69, (1S,2R,3R,5R)-3-(hydroxymethyl)-5-((2-((2-methylpyridin-4-yl)amino)-5-(thiazolo[4,5-c]pyridin-2-yl)pyrimidin-4-yl)amino)cyclopentane-1,2-diol], the IC50 is reported as 3 nM.

COc1cc(Nc2ncc(-c3nc4cnccc4s3)c(N[C@@H]3C[C@H](CO)[C@@H](O)[C@H]3O)n2)ccn1 [Example 71, 6-(((1R,2S,3R,4R)-2,3-dihydroxy-4-(hydroxymethyl)cyclopentyl)amino)-2-((2-methoxypyridin-4-yl)amino)-5-(thiazolo[4,5-c]pyridin-2-yl)pyrimidine] showed an IC50 of 7 nM.

CN(C)c1cccc(Nc2ncc(-c3nc4cnccc4s3)c(N[C@@H]3C[C@H](CO)[C@@H](O)[C@H]3O)n2)c1 [Example 73, 6-(((1R,2S,3R,4R)-2,3-dihydroxy-4-(hydroxymethyl)cyclopentyl)amino)-2-((3-(dimethylamino)phenyl)amino)-5-(thiazolo[4,5-c]pyridin-2-yl)pyrimidine] showed an IC50 of 12 nM.

OC[C@H]1C[C@@H](Nc2nc(Nc3cncnc3)ncc2-c2nc3ccncc3s2)[C@H](O)[C@@H]1O [Example 74, 6-(((1R,2S,3R,4R)-2,3-dihydroxy-4-(hydroxymethyl)cyclopentyl)amino)-2-(pyrimidin-5-ylamino)-5-(thiazolo[5,4-c]pyridin-2-yl)pyrimidine] was tested, and the IC50 was 6 nM.

With COc1cc(Nc2ncc(-c3nc4ccncc4s3)c(N[C@@H]3C[C@H](CO)[C@@H](O)[C@H]3O)n2)ccn1 [Example 75, 6-(((1R,2S,3R,4R)-2,3-dihydroxy-4-(hydroxymethyl)cyclopentyl)amino)-2-((2-methoxypyridin-4-yl)amino)-5-(thiazolo[5,4-c]pyridin-2-yl)pyrimidine] the IC50 was 2 nM.

OC[C@H]1C[C@@H](Nc2nc(NC3CCC3)ncc2-c2nc3cnccc3s2)[C@H](O)[C@@H]1O [Example 76, 2-(cyclobutylamino)-6-(((1R,2S,3R,4R)-2,3-dihydroxy-4-(hydroxymethyl)cyclopentyl)amino)-5-(thiazolo[4,5-c]pyridin-2-yl)pyrimidine] was tested, and the IC50 was 560 nM.

With Cc1cc(Nc2ncc(-c3nc4ccncc4s3)c(N[C@@H]3C[C@H](CO)[C@@H](O)[C@H]3O)n2)ccn1 [Example 77, 6-(((1R,2S,3R,4R)-2,3-dihydroxy-4-(hydroxymethyl)cyclopentyl)amino)-2-((2-methylpyridin-4-yl)amino)-5-(thiazolo[5,4-c]pyridin-2-yl)pyrimidine] the IC50 was 8 nM.

In the case of OC[C@H]1C[C@@H](Nc2nc(Nc3cccnc3)ncc2-c2nc3ccncc3s2)[C@H](O)[C@@H]1O [Example 78, 6-(((1R,2S,3R,4R)-2,3-dihydroxy-4-(hydroxymethyl)cyclopentyl)amino)-2-(pyridin-3-ylamino)-5-(thiazolo[5,4-c]pyridin-2-yl)pyrimidine], the IC50 is reported as 13 nM.

With Cc1cc(Nc2ncc(-c3nc(-c4ccccc4)cs3)c(N[C@@H]3C[C@H](CO)[C@@H](O)[C@H]3O)n2)ccn1 [Example 79, 6-(((1R,2S,3R,4R)-2,3-dihydroxy-4-(hydroxymethyl)cyclopentyl)amino)-2-((2-methylpyridin-4-yl)amino)-5-(4-phenylthiazol-2-yl)pyrimidine] the IC50 was 8 nM.

For COc1cc(Nc2ncc(-c3nc(-c4ccccc4)cs3)c(N[C@@H]3C[C@H](CO)[C@@H](O)[C@H]3O)n2)ccn1 [Example 80, 6-(((1R,2S,3R,4R)-2,3-dihydroxy-4-(hydroxymethyl)cyclopentyl)amino)-2-((2-methoxypyridin-4-yl)amino)-5-(4-phenylthiazol-2-yl)pyrimidine], the IC50 was 98 nM.

OC[C@H]1C[C@@H](Nc2nc(Nc3cncnc3)ncc2-c2nc(-c3ccccc3)cs2)[C@H](O)[C@@H]1O [Example 81, 6-(((1R,2S,3R,4R)-2,3-dihydroxy-4-(hydroxymethyl)cyclopentyl)amino)-5-(4-phenylthiazol-2-yl)-2-(pyrimidin-5-ylamino)pyrimidine] gave an IC50 of 94 nM.

OC[C@H]1C[C@@H](Nc2nc(Nc3cccnc3)ncc2-c2nc(-c3ccccc3)cs2)[C@H](O)[C@@H]1O [Example 82, 6-(((1R,2S,3R,4R)-2,3-dihydroxy-4-(hydroxymethyl)cyclopentyl)amino)-5-(4-phenyithiazol-2-yl)-2-(pyridin-3-ylamino)pyrimidine] showed an IC50 of 3210 nM.

Nc1ncc(-c2nc3cccnc3s2)c(N[C@@H]2C[C@H](CO)[C@@H](O)[C@H]2O)n1 [Example 83, (1R,2S,3R,5R)-3-((2-amino-5-(thiazolo[5,4-b]pyridin-2-yl)pyrimidin-4-yl)amino)-5-(hydroxymethyl)cyclopentane-1,2-diol] gave an IC50 of 1.03 nM.

Cc1nc(Nc2ccnc(F)c2)nc(N[C@@H]2C[C@H](CO)[C@@H](O)[C@H]2O)c1-c1nc2ccccc2s1 [Example 86, (1R,2S,3R,5R)-3-((5-(benzo[d]thiazol-2-yl)-2-((2-fluoropyridin-4-yl)amino)-6-methylpyrimidin-4-yl)amino)-5-(hydroxymethyl)cyclopentane-1,2-diol] gave an IC50 of 430 nM.

Cc1cc(Nc2nc(C)c(-c3nc4ccccc4s3)c(N[C@@H]3C[C@H](CO)[C@@H](O)[C@H]3O)n2)cc(C)n1 [Example 87, (1R,2S,3R,5R)-3-((5-(benzo[d]thiazol-2-yl)-2-((2,6-dimethylpyridin-4-yl)amino)-6-methylpyrimidin-4-yl)amino)-5-(hydroxymethyl)cyclopentane-1,2-diol] was tested, and the IC50 was 119 nM.

Cc1nc(Nc2ccc(Cl)cc2)nc(N[C@@H]2C[C@H](CO)[C@@H](O)[C@H]2O)c1-c1nc2ccccc2s1 [Example 88, (1R,2S,3R,5R)-3-((5-(benzo[d]thiazol-2-yl)-2-((4-chlorophenyl)amino)-6-methylpyrimidin-4-yl)amino)-5-(hydroxymethyl)cyclopentane-1,2-diol] gave an IC50 of 6370 nM.

With Cc1nc(NCCCN2CCN(C)CC2)nc(N[C@@H]2C[C@H](CO)[C@@H](O)[C@H]2O)c1-c1nc2ccccc2s1 [Example 89, (1R,2S,3R,5R)-3-((5-(benzo[d]thiazol-2-yl)-6-methyl-2-((3-(4-methylpiperazin-1-yl)propyl)amino)pyrimidin-4-yl)amino)-5-(hydroxymethyl)cyclopentane-1,2-diol] the IC50 was 6090 nM.

Cc1nc(NC2CC2)nc(N[C@@H]2C[C@H](CO)[C@@H](O)[C@H]2O)c1-c1nc2ccccc2s1 [Example 90, (1R,2S,3R,5R)-3-((5-(benzo[d]thiazol-2-yl)-2-(cyclopropylamino)-6-methylpyrimidin-4-yl)amino)-5-(hydroxymethyl)cyclopentane-1,2-diol] was tested, and the IC50 was 5030 nM.

Source: US9598440B2, “Inhibitors of IRAK4 activity” (MERCK SHARP & DOHME CORP., priority 2012, dated 2017)
